Measured values from article PMC6321145 (Molecules, 2018).

How the values were obtained:
SH-SY5Y cells [1] = experiment: Cellular ROS detection (DCFH-DA) in SH-SY5Y cells treated with t-BuOOH; type: cell-based, human; conditions: compound 2.5 μM; 0.1 mM t-BuOOH; compared with Trolox
Experimental: To further investigate their antioxidant activity in SH-SY5Y cells, cellular ROS detection assay based on dichlorofluorescein diacetate (DCFH-DA) was performed. with Trolox and N-acetyl-L-cysteine (NAC) as reference compounds.
SH-SY5Y cells were maintained in Dulbecco’s modified Eagle’s medium (DEME) and supplemented with 1 mM glutamine, 10% fetal calf serum, 100 U/mL penicillin, and 100 μg/mL streptomycin. The cultures were maintained at 37 °C in a humidified incubator containing 5% CO2 and were passaged twice weekly.
The antioxidant activity of the compounds in SH-SY5Y cells were tested with the fluorescent probe (2′,7′-dichlorofluorescein diacetate, DCFH-DA) as reported with some variation. SH-SY5Y cells were sub-cultured in 96-well plates at a seeding density of 1 × 10^4 cells per well for 24 h, then the medium was removed, the tested compounds (2.5 μM) was added and incubated for another 24 h at 37 °C. After that, the cells were washed with PBS and incubated with 5 μM DCFH-DA in PBS at 37 °C in 5% CO2 for 30 min. Then DCFH-DA was removed, the cells were washed three times and incubated with 0.1 mM t-BuOOH in PBS for 30 min. After the incubation, the cell fluorescence from each well was measured at 485 nm excitation and 535 nm emission with a monochromator based multimode microplate reader ([…] M1000).

SH-SY5Y cells [2] = experiment: Cytotoxicity on SH-SY5Y cells (MTT); type: cell-based, human; conditions: 20 μM
Experimental: (§1) The cytotoxicity of our synthesized compounds was examined in human neuroblastoma SH-SY5Y cells. The cell viability was determined by using methyl thiazolyl tetrazolium (MTT) colorimetry, the cells were treated with different concentrations of compounds (0–100 μM). The result is shown in the Supplementary Materials (Table S1).
(§2) The cytotoxicities of the compounds were evaluated using the MTT assay. SH-SY5Y cells were subcultured in 96-well plates at a seeding density of 1 × 10^4 cells per well. After 24 h, the medium was removed and treated with different concentrations of tested compounds for 24 h at 37 °C. The survival of cells was determined with MTT assay. Then 80 μL of medium and 20 μL of MTT (0.5 mg/mL, final concentration) were added to each well and incubated for another 4 h. After the removal of MTT, the formazan crystals were dissolved in DMSO. The amount of formazan was measured using a microculture plate reader at the wavelength of 570 nm. Each concentration was performed in triplicate.

[3] = Cytotoxicity on SH-SY5Y cells (MTT); type: cell-based, human; conditions: human, SH-SY5Y neuroblastoma cells; MTT, 24 h; mean ± SEM of three measurements
Experimental: as §1, §2

[4] = Metal chelation by UV-vis spectrometry; type: physicochemical
Experimental: The chelation ability of compound 6b1 toward biometals such as Na^+, K^+, Cu^2+, Fe^2+, Mg^2+, Ca^2+, and Zn^2+ was studied by UV-vis spectrometry. […] Its ability to selectively chelate Cu^2+ versus other relevant metal ions was further investigated by UV-vis spectrometry. Solution of compound 6b1 was prepared and treated with the metal ion (Zn^2+, Fe^2+, Ca^2+, Mg^2+, Na^+ and K^+), after 10 min incubation, the optical response was observed, followed by addition of Cu^2+ and consequent analysis of further spectral changes.
In order to further determine the stoichiometry of compound 6b1 for Cu^2+ binding, the UV spectra was performed by titrations of compound 6b1 upon stepwise additions of a Cu^2+ solution.
The metal chelation of compound 6b1 was tested in ethanol using a UV-vis spectrophotometer (Shimadzu UV-2450PC) with wavelength ranging from 200 to 700 nm. The absorption spectra of compound 6b1 (10 μM, final concentration) alone or in the presence of metal ions (20 μM, final concentration) after incubation for 30 min at room temperature, was recorded at room temperature in a 1 cm quartz cell. Each sample was repeated for at least three times.
Experiments for the determination of metal ion binding selectivity were carried as follows. 20.0 mM stock solutions of CuSO4, ZnSO4, FeSO4, CaCl2, MgCl2, NaCl and KCl in MQ water were prepared and then diluted to 1.0 mM using ethanol. […] 10 μL solutions of the compounds treated with 10 μL of ZnSO4, FeSO4, CaCl2, MgCl2, NaCl and KCl. Spectra were recorded after 10 min incubation at 25 °C. The metal binding selectivity was assessed by then adding 10 μL of CuSO4 solution and incubating for 10 additional min at 25 °C. Selectivity was quantified by comparing and normalizing the absorbance values of the maximum in each case with the absorbance of the solution at the same wavelength after addition of CuSO4.
For binding stoichiometry assay, A fixed amount of compound 6b1 (20 μM) was mixed with growing amounts of copper ion (0–20 μM) and tested the difference UV-vis spectra to investigate the ratio of ligand/metal in the complex.

Aβ1–42 = biological target: T1, Aβ1–42 (Homo sapiens, UniProt P05067); experiment: Inhibition of Cu^2+-induced Aβ1–42 aggregation (ThT-binding assay); type: biochemical; conditions: [Aβ] = 20 μM, [Cu^2+] = 20 μM, [compound] = 40 μM; 37 °C, 24 h
T1 construct: Aβ1–42 (Sigma, St. Louis, MO, USA; counterion, NaOH) stock solution was prepared by dissolving Aβ1–42 peptide in ammonium hydroxide; purchased Sigma
T1 sequence (P05067 672-713): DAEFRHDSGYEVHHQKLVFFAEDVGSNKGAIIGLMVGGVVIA
Experimental: To investigate the ability of compound 6b1 to inhibit Cu^2+-induced Aβ1–42 aggregation, the ThT-binding assay was performed.
Aβ was diluted in […] (pH 6.6) with […]. The mixture of the peptide (10 μL, 20 μM, final concentration) with or without copper (10 μL, 20 μM, final concentration) and the test compound (10 μL, 40 μM, final concentration) was incubated at 37 °C for 24 h. The 30 μL of the sample was diluted to a final volume of 200 μL with 50 mM glycine-NaOH buffer (pH 8.0) containing thioflavin T (5 μM). The detection method was the same as that of self-induced Aβ aggregation experiment.

[5] = compound 10 μM, metal ions 20 μM, ethanol

SMILES: CCN(CC)c1ccc(/C=C/c2cc(NCCCN(C)C)c3ccccc3n2)cc1 [Compound 6b1, (E)-N^1-(2-(4-(Diethylamino)styryl)quinolin-4-yl)-N^3,N^3-dimethylpropane-1,3-diamine]
- Antioxidant activity in SH-SY5Y cells (ROS generation, DCFH-DA fluorescence) (SH-SY5Y cells [1]): more antioxidant activity than Trolox
- Effect on SH-SY5Y cell viability, compound alone (SH-SY5Y cells [2]): does not affect cell viability
- IC50 at 24 h [3]: 254 µM
- Binding to Na^+, K^+, Mg^2+, Ca^2+ (UV-vis) [4, 5]: may not bind to these metal ions
- Interaction with Cu^2+, Fe^2+, Zn^2+ (UV-vis) [4, 5]: form the complex
- Selectivity of metal chelation for Cu^2+ versus other metal ions ([4]; versus Zn^2+, Fe^2+, Ca^2+, Mg^2+, Na^+, K^+): good selectivity of metal chelation for Cu^2+
- Inhibition of Cu^2+-induced Aβ aggregation (Aβ1–42): 85.8%
